Laboratory results published in US6441021B1, “Sulfonated amino acid derivatives and metalloproteinase inhibitors containing the same” (Shionogi & Co., Ltd., priority 1996, dated 2002).
Read-outs that look alike come from different tables or passages of the source.

What was measured:
[1] = molecular target: T1, MMP-9 (92 kDa, gelatinase B; type IV collagenase) (Homo sapiens, UniProt P14780); experiment: Assay of type IV collagenase inhibitors: activated MMP-9 with type IV collagenase activity kit substrate, fluorescent intensity; format: biochemical
T1 construct: endogenous in cells; enzyme purified from the conditioned medium
Protocol: (1) Isolation and Purification of MMP-9 (92 kDa, Gelatinase B)
Type IV collagenase (MMP-9) was purified according to the methods descrived in the following literature.
Subsequently, activated MMP-9 was obtained by treating the pro-MMP-9 with trypsin.
(2) Assay Methods of Type IV Collagenase Inhibitors
Collagenase assay was performed using the activated MMP-9 described above and the substrate supplied in the type IV collagenase activity kit (YAGAI, inc.), according to the manufacturer's protocol. The following 4 assays are performed per compound (inhibitor).
(A) substrate (type IV collagenase), enzyme (MMP-9), inhibitor
(B) substrate (type IV collagenase), inhibitor
(C) substrate (type IV collagenase), enzyme (MMP-9)
(D) substrate (type IV collagenase)
According to the manufacturer's protocol, fluorescent intensity was measured and percent inhibition was determined by the following equation.
Inhibition (%)={1−(A−B)/(C−D)}×100

[2] = inhibition of type IV collagenase (MMP-9), concentration at which percent inhibition reaches 50%

T1 sequence (P14780 107-707 limits assumed): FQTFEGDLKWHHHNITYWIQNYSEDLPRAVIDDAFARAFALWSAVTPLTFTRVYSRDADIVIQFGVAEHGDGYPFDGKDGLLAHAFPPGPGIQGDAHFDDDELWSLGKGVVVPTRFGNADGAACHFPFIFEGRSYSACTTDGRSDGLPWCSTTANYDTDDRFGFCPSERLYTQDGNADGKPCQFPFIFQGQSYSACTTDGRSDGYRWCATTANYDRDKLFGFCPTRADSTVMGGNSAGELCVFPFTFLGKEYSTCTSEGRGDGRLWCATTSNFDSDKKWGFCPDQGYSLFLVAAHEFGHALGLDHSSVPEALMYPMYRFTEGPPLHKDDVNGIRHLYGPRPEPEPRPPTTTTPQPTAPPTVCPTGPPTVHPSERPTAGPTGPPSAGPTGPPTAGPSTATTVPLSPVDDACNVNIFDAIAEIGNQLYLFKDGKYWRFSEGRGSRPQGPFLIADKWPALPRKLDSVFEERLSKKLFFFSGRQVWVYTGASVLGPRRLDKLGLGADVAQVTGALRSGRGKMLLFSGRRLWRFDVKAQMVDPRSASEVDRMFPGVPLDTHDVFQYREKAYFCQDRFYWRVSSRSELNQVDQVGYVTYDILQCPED

Compound	melting point	IC50 [1, 2]	IC50 [1]
COc1ccc(C(=O)Nc2ccc(S(=O)(=O)N[C@H](Cc3c[nH]c4ccccc34)C(=O)O)cc2)cc1 (hydrate or solvate) [Example 178]	233 to 234 °C	–	–
O=C(Nc1ccc(S(=O)(=O)N[C@H](Cc2c[nH]c3ccccc23)C(=O)O)cc1)c1ccc([N+](=O)[O-])cc1 (hydrate or solvate) [Example 180]	211 to 213 °C	–	–
CN(C)c1ccc(C(=O)Nc2ccc(S(=O)(=O)N[C@H](Cc3c[nH]c4ccccc34)C(=O)O)cc2)cc1 (hydrate or solvate) [Example 181]	236 to 238 °C	–	–
Cc1ccc(C(=O)Nc2ccc(S(=O)(=O)N[C@H](Cc3c[nH]c4ccccc34)C(=O)O)cc2)cc1 (hydrate or solvate) [Example 182]	240 to 244 °C	–	–
O=C(Nc1ccc(S(=O)(=O)N[C@H](Cc2c[nH]c3ccccc23)C(=O)O)cc1)c1ccc(Br)cc1 (hydrate or solvate) [Example 183]	215 to 218 °C	–	–
CSc1ccc(C(=O)Nc2ccc(S(=O)(=O)N[C@H](Cc3c[nH]c4ccccc34)C(=O)O)cc2)cc1 (hydrate or solvate) [Example 184]	244 to 249 °C	–	–
O=C(Nc1ccc(S(=O)(=O)N[C@H](Cc2c[nH]c3ccccc23)C(=O)O)cc1)c1ccc(F)cc1 (hydrate or solvate) [Example 185]	170 to 175 °C	–	–
CC(C)[C@@H](NS(=O)(=O)c1ccc(NC(=O)c2ccc(-c3ccccc3)cc2)cc1)C(=O)O (hydrate or solvate) [Example 195]	254 to 256 °C	–	–
Cc1ccc(C(=O)Nc2ccc(S(=O)(=O)N[C@@H](C(=O)O)C(C)C)cc2)cc1 (hydrate or solvate) [Example 196]	227 to 229 °C	–	–
CC(C)[C@@H](NS(=O)(=O)c1ccc(NC(=O)c2ccccc2)cc1)C(=O)O (hydrate or solvate) [Example 199]	226 to 227 °C	–	–
COc1ccc(C(=O)Nc2ccc(S(=O)(=O)N[C@@H](C(=O)O)C(C)C)cc2)cc1 (hydrate or solvate) [Example 200]	220 to 221 °C	–	–
CC(C)[C@@H](NS(=O)(=O)c1ccc(NC(=O)c2ccc([N+](=O)[O-])cc2)cc1)C(=O)O (hydrate or solvate) [Example 201]	240 to 242 °C	–	–
COc1ccc(C(=O)Nc2ccc(S(=O)(=O)N[C@@H](C(=O)O)C(C)(C)C)cc2)cc1 (hydrate or solvate) [Example 203]	214 to 216 °C	–	–
O=C(O)C(Cc1cccc2ccccc12)NS(=O)(=O)c1ccc(-c2nnn(-c3ccccc3)n2)cc1 (centres unmarked) (hydrate or solvate) [Example 218]	225 to 227 °C	–	–
O=Cn1cc(C[C@@H](NS(=O)(=O)c2ccc(-c3nnn(-c4ccccc4)n3)cc2)C(=O)O)c2ccccc21 (hydrate or solvate) [Example 219]	111 to 114 °C	–	–
CCC(C)[C@@H](NS(=O)(=O)c1ccc(-c2nnn(-c3ccc(OC)cc3)n2)cc1)C(=O)O (some centres unmarked) (hydrate or solvate) [Example 222]	204 to 207 °C	–	–
CC(C)[C@@H](NS(=O)(=O)c1ccc(-c2nnn(-c3ccc(Br)cc3)n2)cc1)C(=O)O (hydrate or solvate) [Example 225]	227 to 228 °C	–	–
O=C(O)[C@@H](Cc1ccccc1)NS(=O)(=O)c1ccc(-c2nnn(-c3ccc([N+](=O)[O-])cc3)n2)cc1 (hydrate or solvate) [Example 230]	190 to 191 °C	–	–
O=C(O)[C@@H](Cc1ccccc1)NS(=O)(=O)c1ccc(-c2nnn(-c3ccc(F)cc3)n2)cc1 (hydrate or solvate) [Example 231]	205 to 207 °C	–	–
O=C(O)[C@@H](Cc1ccccc1)NS(=O)(=O)c1ccc(-c2nnn(-c3ccc(Cl)cc3)n2)cc1 (hydrate or solvate) [Example 232]	204 to 206 °C	–	–
Cc1ccc(-n2nnc(-c3ccc(S(=O)(=O)N[C@H](Cc4ccccc4)C(=O)O)cc3)n2)cc1 (hydrate or solvate) [Example 233]	226 to 227 °C	–	–
COc1ccc(-n2nnc(-c3ccc(S(=O)(=O)N[C@H](Cc4ccccc4)C(=O)O)cc3)n2)cc1 (hydrate or solvate) [Example 234]	214 to 216 °C	–	–
N#Cc1ccc(-n2nnc(-c3ccc(S(=O)(=O)N[C@H](Cc4ccccc4)C(=O)O)cc3)n2)cc1 (hydrate or solvate) [Example 235]	190 to 192 °C	–	–
O=C(O)[C@@H](Cc1ccccc1)NS(=O)(=O)c1ccc(-c2nnn(-c3ccc(C4CCCCC4)cc3)n2)cc1 (hydrate or solvate) [Example 237]	225 to 227 °C	–	–
O=C(O)[C@@H](Cc1c[nH]c2ccccc12)NS(=O)(=O)c1ccc(-c2nnn(-c3ccc(Br)cc3)n2)cc1 (hydrate or solvate) [Example 240]	205 to 207 °C	–	–
Cc1ccc(-n2nnc(-c3ccc(S(=O)(=O)N[C@H](Cc4c[nH]c5ccccc45)C(=O)O)cc3)n2)cc1 (hydrate or solvate) [Example 241]	199 to 201 °C	–	–
Cc1ccc(-n2nnc(-c3ccc(S(=O)(=O)N[C@@H](C(=O)O)C(C)C)cc3)n2)cc1 (hydrate or solvate) [Example 242]	206 to 207 °C	–	–

Compound	melting point	IC50 [1, 2]	IC50 [1]
CC(C)[C@@H](NS(=O)(=O)c1ccc(-c2nnn(-c3ccc(F)cc3)n2)cc1)C(=O)O (hydrate or solvate) [Example 243]	208 to 209 °C	–	–
CSc1ccc(-n2nnc(-c3ccc(S(=O)(=O)N[C@@H](C(=O)O)C(C)C)cc3)n2)cc1 (hydrate or solvate) [Example 245]	194 to 195 °C	–	–
CSc1ccc(-n2nnc(-c3ccc(S(=O)(=O)N[C@H](Cc4ccccc4)C(=O)O)cc3)n2)cc1 (hydrate or solvate) [Example 246]	222 to 224 °C	–	–
CSc1ccc(-n2nnc(-c3ccc(S(=O)(=O)N[C@H](Cc4c[nH]c5ccccc45)C(=O)O)cc3)n2)cc1 (hydrate or solvate) [Example 247]	213 to 216 °C	–	–
O=C(Nc1ccc(S(=O)(=O)N[C@H](Cc2c[nH]c3ccccc23)C(=O)O)cc1)c1ccccc1 [Example 177]	215 to 217 °C	684 nM	–
Nc1ccc(C(=O)Nc2ccc(S(=O)(=O)N[C@H](Cc3c[nH]c4ccccc34)C(=O)O)cc2)cc1 [Example 179]	216 to 218 °C	–	2360 nM
COc1ccc(C(=O)Nc2ccc(S(=O)(=O)N[C@H](Cc3ccccc3)C(=O)O)cc2)cc1 [Example 186]	237 to 239 °C	–	98.2 nM
O=C(Nc1ccc(S(=O)(=O)N[C@H](Cc2ccccc2)C(=O)O)cc1)c1ccc([N+](=O)[O-])cc1 [Example 187]	235 to 239 °C	–	177 nM
O=C(Nc1ccc(S(=O)(=O)N[C@H](Cc2ccccc2)C(=O)O)cc1)c1ccccc1 [Example 188]	114 to 115 °C	843 nM	–
O=C(Nc1ccc(S(=O)(=O)N[C@H](Cc2ccccc2)C(=O)O)cc1)c1ccc(Br)cc1 [Example 189]	242 to 243 °C	–	37.5 nM
Cc1ccc(C(=O)Nc2ccc(S(=O)(=O)N[C@H](Cc3ccccc3)C(=O)O)cc2)cc1 [Example 190]	242 to 244 °C	59.7 nM	–
CSc1ccc(C(=O)Nc2ccc(S(=O)(=O)N[C@H](Cc3ccccc3)C(=O)O)cc2)cc1 [Example 191]	232 to 235 °C	–	9.5 nM
O=C(Nc1ccc(S(=O)(=O)N[C@H](Cc2ccccc2)C(=O)O)cc1)c1ccc(F)cc1 [Example 192]	218 to 220 °C	–	324 nM
O=C(Nc1ccc(S(=O)(=O)N[C@H](Cc2ccccc2)C(=O)O)cc1)c1ccc(Cl)nc1 [Example 193]	201 to 203 °C	–	722 nM
CSc1ccc(C(=O)Nc2ccc(S(=O)(=O)N[C@@H](C(=O)O)C(C)C)cc2)cc1 [Example 197]	231 to 234 °C	16.1 nM	–
CC(C)[C@@H](NS(=O)(=O)c1ccc(NC(=O)c2ccc(F)cc2)cc1)C(=O)O [Example 198]	235 to 236 °C	–	493 nM
COc1ccc(-n2nnc(-c3ccc(S(=O)(=O)N[C@H](Cc4c[nH]c5ccccc45)C(=O)O)cc3)n2)cc1 [Example 220]	195 to 196 °C	–	–
Cc1ccc(-n2nnc(-c3ccc(S(=O)(=O)N[C@H](Cc4c[nH]c5ccccc45)C(=O)O)cc3)n2)cc1 [Example 241]	–	–	13.1 nM
Cc1ccc(-n2nnc(-c3ccc(S(=O)(=O)N[C@@H](C(=O)O)C(C)C)cc3)n2)cc1 [Example 242]	–	–	23.9 nM
CC(C)[C@@H](NS(=O)(=O)c1ccc(-c2nnn(-c3ccc(F)cc3)n2)cc1)C(=O)O [Example 243]	–	–	52.9 nM
CSc1ccc(-n2nnc(-c3ccc(S(=O)(=O)N[C@@H](C(=O)O)C(C)C)cc3)n2)cc1 [Example 245]	–	5.9 nM	–
CSc1ccc(-n2nnc(-c3ccc(S(=O)(=O)N[C@H](Cc4ccccc4)C(=O)O)cc3)n2)cc1 [Example 246]	–	–	10.8 nM
CSc1ccc(-n2nnc(-c3ccc(S(=O)(=O)N[C@H](Cc4c[nH]c5ccccc45)C(=O)O)cc3)n2)cc1 [Example 247]	–	–	3.5 nM
CC(C)[C@H](C(=O)O)N(C)S(=O)(=O)c1ccc(Oc2ccccc2)cc1 [Example 252]	–	–	240 nM
CC(C)[C@H](C(=O)O)N(CCCCN)S(=O)(=O)c1ccc(Oc2ccccc2)cc1 [Example 255]	–	–	529 nM
O=C(O)[C@@H](Cc1ccccc1)N(Cc1ccccc1)S(=O)(=O)c1ccc(-c2nnn(-c3ccccc3)n2)cc1 [Example 258]	–	–	908 nM
